Earlier results, collected in patent publication US20170304196A1, “ORALLY DISINTEGRATING TABLET AND METHOD FOR PRODUCING SAME” (FUJIFILM CORPORATION, priority 2015, published 2017).

Settings: anionic substance

Compound: CCCCCCCCCCCCOS(=O)(=O)[O-].[Na+] [sodium lauryl sulfate]
- pKa: 1.9
